{"source": "patent US7083802B2", "about": "“Treatment of ocular disease” (Advanced Ocular Systems Limited, priority 2003, dated 2006)", "origin": "cited, not measured here", "key": {"[1]": {"details": "reported in co-pending application Ser. No. 10/247,220"}}, "data": [{"smiles": "C=CC[C@@H]1/C=C(\\C)C[C@H](C)C[C@H](OC)[C@H]2O[C@@](O)(C(=O)C(=O)N3CCCC[C@H]3C(=O)O[C@H](/C(C)=C/[C@@H]3CC[C@@H](O)[C@H](OC)C3)[C@H](C)[C@@H](O)CC1=O)[C@H](C)C[C@@H]2OC", "note": "[tacrolimus]", "values": [{"measurement": "Dose for administration without substantial toxicity", "setting": "[1]", "result": 250, "unit": "µg"}, {"measurement": "Clinical effect in atopic dermatitis", "setting": "topical, doses 0.03%–0.3%, after 2–3 weeks treatment", "result": "significant clinical improvement"}, {"measurement": "Adverse effects of topical administration versus control", "setting": "treatment of dermatoses, concentrations up to 0.3%", "result": "no significant difference in effects between treated and control groups"}]}]}
